Structures can show the parent of a compound that is named as a salt.
Assays:
[1] = biological target: T1, recombinant NPM1 C-terminal domain (residues 240-294) (Homo sapiens, UniProt P06748); test: In vitro NPM1 C-terminal domain labeling (Western blot); type: biochemical; details: 10 μM NPM1, 100 μM probe, 100 μM glutathione, HEPES pH 7.5, about 440 nm, 15 min
T1 construct: 6×His (N, cleaved yes); made in house; host or cells: NiCo21(DE3) E. coli
Description: In vitro NPM1 C-terminal domain labeling and characterization: Labeling of recombinant NPM1 with the pyridinium salt 2b was performed with the following conditions: 10 μM NPM1 was treated with DMSO or 100 μM pyridinium salt 2b (2% DMSO) in 50 mM HEPES pH 7.5, 150 mM NaCl, 1.5 mM MgCl2, and 100 μM glutathione (GSH). Samples were irradiated at 450 nm (Kessil PR160L-440) at 100% intensity for 15 minutes at room temperature or 50° C. The reaction mixture was quenched with the addition of 4X LDS buffer (Invitrogen) containing 10 mM DTT (Pierce) and boiled for 10 minutes before resolving proteins on 4-12% Bis-Tris NuPAGE gels (Invitrogen), transferred onto a Trans-Blot Turbo Mini 0.2 μm nitrocellulose membrane (BioRad), blocked with 5% BSA in tris-buffered saline with Tween-20 (TBST), and incubated with HRP-linked anti-biotin (Cell Signaling Technology, #7075).

[2] = biological target: T2, β2-Microglobulin (Homo sapiens, UniProt P61769); test: Photochemical labeling of β2-microglobulin with pyridinium salt (General Procedure B, LC/MS); type: biochemical; details: trypsin digest
T2 construct: β2-microglobulin (Human Urine ≥98% (SDS-PAGE)); purchased Lee Biosolutions; host or cells: human urine
Description: General Procedure B: Photochemical Irradiation of Peptides and Proteins: To a 2 mL Pyrex LC/MS vial (Thermo model #03-391-39) were sequentially added solutions containing the desired biomolecule, glutathione (GSH), pyridinium salt, and ammonium acetate (NH4OAc). The resulting solution was diluted to a final volume of 500 μL and then sparged using nitrogen for a minimum of 30 minutes prior to irradiation. The actively sparging solution was then placed in an EvoluChem™ PhotoRedOx Box photoreactor that was equipped with a Kessil, PR160 427 nm LED Lamp and was then irradiated (100% lamp intensity) for the designated time at room temperature while maintaining active sparging. The resultant reaction mixture was then analyzed directly by LC/MS. Analysis of labeling outcomes using LC/MS was performed either by extracted ion chromatogram intensities (method A) or by integrating the area under the peaks associated with peptide content (method B). […]
Labeling of β2-Microglobulin with Pyridinium Salt 2a (β2-Microglobulin-2a Conjugate). […] The reaction mixture was directly analyzed by LC/MS using method A and was estimated to have proceeded with 88% conversion with a >20:1 mono:di labeled ratio and 7% glutathionylation of all unlabeled and labeled protein content. β2-Microglobulin-2a conjugate (retention time (Tr)=3.26-4.70 min). […]

T1 sequence (P06748 240-294): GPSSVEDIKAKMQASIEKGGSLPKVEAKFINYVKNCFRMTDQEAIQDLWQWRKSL
T2 sequence (P61769 21-119): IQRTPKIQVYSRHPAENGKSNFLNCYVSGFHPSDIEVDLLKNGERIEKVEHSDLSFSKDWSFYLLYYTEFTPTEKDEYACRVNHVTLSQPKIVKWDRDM

Row | SMILES | Western analysis of construct labeling [1] | Modified Trp [2]
1 | COc1ccc2cc(-c3cc(C)[n+](N(C)C(=O)OCCCCC[C@H]4SC[C@H]5NC(=O)N[C@H]54)c(C)c3)ccc2c1 (stereo in doubt) [pyridinium salt 2b, 4-(6-methoxynaphthalen-2-yl)-2,6-dimethyl-1-(methyl(((5-((3aR,4R,6aS)-2-oxohexahydro-1H-thieno[3,4-d]imidazol-4-yl)pentyl)oxy)carbonyl)amino)pyridin-1-ium tetrafluoroborate] | photo-dependent labeling | –
2 | COC(=O)N(C)[n+]1c(C)cc(-c2ccc3cc(OC)ccc3c2)cc1C [pyridinium salt 2a, 1-((methoxycarbonyl)(methyl)amino)-4-(6-methoxynapthalen-2-yl)-2,6-dimethylpyridin-1-ium tetrafluoroborate] | – | Trp-60

From patent US20240262845A1, “PYRIDINIUM SALTS, METHODS OF MAKING, AND METHODS OF USE” (UNIVERSITY OF WYOMING, priority 2023, published 2024)
